{"source": "patent US9833454B2", "about": "“Difluoromethoxy compound with low bioactivation potential for the reduction of beta-amyloid production” (BRISTOL-MYERS SQUIBB COMPANY, priority 2014, dated 2017)", "key": {"Aβ42": {"tested_on": "Aβ42", "test": "Determination of Aβ42 IC50", "assay_type": "cell-based", "method": "Aβ42 IC50 was determined as described by Gillman, J. E. Starrett Jr., M. F. Parker, et al., “Discovery and evaluation of BMS-708163, a potent, and orally bioavailable gamma-secretase inhibitor”, ACS Medicinal Chemistry Letters, vol. 1., pp. 120-124, 2010. Mouse brain Aβ42 was determined as described by J. H. Toyn, X-A. Lin, M. W. Thompson et al., “Viable mouse gene ablations that robustly alter bran Abeta levels are are”, Biomed. Central Neuroscience, vol. 11, pp. 143, […]."}, "CYP2C8 [1]": {"molecular_target": "T1, CYP2C8 (Homo sapiens, UniProt P10632)", "T1 sequence (P10632 1-490)": "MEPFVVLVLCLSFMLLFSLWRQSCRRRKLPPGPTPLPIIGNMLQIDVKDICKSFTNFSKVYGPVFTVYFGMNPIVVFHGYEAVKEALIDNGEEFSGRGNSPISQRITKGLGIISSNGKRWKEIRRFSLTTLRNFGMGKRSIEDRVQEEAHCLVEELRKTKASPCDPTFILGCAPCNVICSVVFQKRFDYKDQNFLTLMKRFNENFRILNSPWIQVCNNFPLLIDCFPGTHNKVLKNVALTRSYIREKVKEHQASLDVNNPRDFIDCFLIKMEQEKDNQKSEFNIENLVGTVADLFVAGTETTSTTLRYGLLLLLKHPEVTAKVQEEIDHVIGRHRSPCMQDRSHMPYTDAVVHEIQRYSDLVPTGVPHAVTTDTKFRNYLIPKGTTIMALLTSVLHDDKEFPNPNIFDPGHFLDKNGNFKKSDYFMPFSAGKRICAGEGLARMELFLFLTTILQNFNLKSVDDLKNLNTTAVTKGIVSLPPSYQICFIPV", "test": "Inhibition of recombinant CYP enzymes (rCYP), CYP2C8", "assay_type": "in vitro ADME", "conditions": "average of two experiments, read-out: rCYP IC50 2C8"}, "CYP2C9": {"molecular_target": "CYP2C9 (Homo sapiens, UniProt P11712)", "sequence (P11712 whole entry)": "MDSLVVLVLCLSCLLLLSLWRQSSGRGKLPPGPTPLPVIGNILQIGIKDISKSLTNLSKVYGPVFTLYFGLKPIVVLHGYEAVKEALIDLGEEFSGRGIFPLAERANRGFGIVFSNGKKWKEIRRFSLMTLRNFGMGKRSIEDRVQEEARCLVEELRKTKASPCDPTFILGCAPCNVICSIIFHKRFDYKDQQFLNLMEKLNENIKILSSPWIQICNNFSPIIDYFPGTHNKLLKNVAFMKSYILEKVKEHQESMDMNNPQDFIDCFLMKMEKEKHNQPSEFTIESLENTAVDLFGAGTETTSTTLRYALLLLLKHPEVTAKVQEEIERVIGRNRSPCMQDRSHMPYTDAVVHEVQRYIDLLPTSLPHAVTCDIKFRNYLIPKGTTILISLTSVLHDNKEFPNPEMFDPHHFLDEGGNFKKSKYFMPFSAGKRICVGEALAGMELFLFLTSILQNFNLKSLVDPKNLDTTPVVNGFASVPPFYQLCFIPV", "test": "Inhibition of recombinant CYP enzymes (rCYP), CYP2C9", "assay_type": "in vitro ADME", "conditions": "average of two experiments, read-out: rCYP IC50 2C9"}, "CYP2C19 [2]": {"molecular_target": "T2, CYP2C19 (Homo sapiens, UniProt P33261)", "T2 sequence (P33261 whole entry)": "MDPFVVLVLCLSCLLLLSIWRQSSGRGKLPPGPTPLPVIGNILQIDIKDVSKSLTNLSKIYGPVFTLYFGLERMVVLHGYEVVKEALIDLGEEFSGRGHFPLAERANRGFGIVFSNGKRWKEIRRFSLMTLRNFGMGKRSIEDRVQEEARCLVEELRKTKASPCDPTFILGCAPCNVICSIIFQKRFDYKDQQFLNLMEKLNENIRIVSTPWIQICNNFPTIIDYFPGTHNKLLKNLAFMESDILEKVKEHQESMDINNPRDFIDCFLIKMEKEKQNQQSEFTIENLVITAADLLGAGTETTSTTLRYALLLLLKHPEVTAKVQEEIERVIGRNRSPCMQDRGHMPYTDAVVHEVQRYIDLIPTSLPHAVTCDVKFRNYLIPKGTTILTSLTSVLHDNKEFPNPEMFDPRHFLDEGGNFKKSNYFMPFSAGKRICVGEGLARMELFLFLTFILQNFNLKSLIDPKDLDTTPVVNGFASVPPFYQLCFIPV", "test": "Inhibition of recombinant CYP enzymes (rCYP), CYP2C19", "assay_type": "in vitro ADME", "conditions": "average of two experiments, read-out: rCYP IC50 2C19"}, "CYP2B6": {"molecular_target": "T3, CYP2B6 (Homo sapiens, UniProt P20813)", "T3 sequence (P20813 1-491)": "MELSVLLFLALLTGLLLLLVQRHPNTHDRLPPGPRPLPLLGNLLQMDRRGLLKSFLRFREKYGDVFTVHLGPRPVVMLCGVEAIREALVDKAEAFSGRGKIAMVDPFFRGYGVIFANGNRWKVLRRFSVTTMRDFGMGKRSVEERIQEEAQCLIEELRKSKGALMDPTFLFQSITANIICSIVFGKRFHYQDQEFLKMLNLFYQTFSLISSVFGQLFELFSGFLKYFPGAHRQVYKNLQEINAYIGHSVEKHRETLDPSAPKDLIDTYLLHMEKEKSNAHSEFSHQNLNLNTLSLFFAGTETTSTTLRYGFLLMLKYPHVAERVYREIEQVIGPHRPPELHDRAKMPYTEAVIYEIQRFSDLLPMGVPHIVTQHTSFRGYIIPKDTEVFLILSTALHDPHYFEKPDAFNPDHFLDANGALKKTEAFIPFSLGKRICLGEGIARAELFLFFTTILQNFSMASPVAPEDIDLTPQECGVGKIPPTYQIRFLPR", "test": "Inhibition of CYP enzymes in human liver microsomes (HLM), CYP2B6", "assay_type": "in vitro ADME"}, "CYP2C8 [3]": {"molecular_target": "T1, CYP2C8", "test": "Inhibition of CYP enzymes in human liver microsomes (HLM), CYP2C8", "assay_type": "in vitro ADME"}, "dopamine receptor 1": {"molecular_target": "dopamine receptor 1 (Homo sapiens, UniProt P21728)", "sequence (P21728 whole entry)": "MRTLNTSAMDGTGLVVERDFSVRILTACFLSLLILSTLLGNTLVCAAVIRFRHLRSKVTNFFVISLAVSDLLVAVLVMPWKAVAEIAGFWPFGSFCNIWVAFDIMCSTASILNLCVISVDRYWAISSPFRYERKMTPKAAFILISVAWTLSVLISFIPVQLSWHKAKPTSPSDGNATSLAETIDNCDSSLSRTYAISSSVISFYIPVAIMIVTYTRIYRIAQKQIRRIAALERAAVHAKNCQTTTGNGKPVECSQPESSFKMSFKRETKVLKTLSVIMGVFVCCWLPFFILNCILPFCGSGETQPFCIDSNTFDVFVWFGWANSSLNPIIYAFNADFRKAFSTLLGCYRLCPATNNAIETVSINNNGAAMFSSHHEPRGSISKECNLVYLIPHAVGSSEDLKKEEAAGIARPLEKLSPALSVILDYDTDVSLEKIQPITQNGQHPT", "test": "In vitro safety: off-target receptor binding and enzyme assays, D1", "conditions": "in vitro safety panel", "method": "(§1) A range of off-target receptor binding assays and enzyme assays were carried out using conventional methods available in the art."}, "monoamine oxidase A": {"molecular_target": "T4, monoamine oxidase A (Homo sapiens, UniProt P21397)", "T4 sequence (P21397 1-527)": "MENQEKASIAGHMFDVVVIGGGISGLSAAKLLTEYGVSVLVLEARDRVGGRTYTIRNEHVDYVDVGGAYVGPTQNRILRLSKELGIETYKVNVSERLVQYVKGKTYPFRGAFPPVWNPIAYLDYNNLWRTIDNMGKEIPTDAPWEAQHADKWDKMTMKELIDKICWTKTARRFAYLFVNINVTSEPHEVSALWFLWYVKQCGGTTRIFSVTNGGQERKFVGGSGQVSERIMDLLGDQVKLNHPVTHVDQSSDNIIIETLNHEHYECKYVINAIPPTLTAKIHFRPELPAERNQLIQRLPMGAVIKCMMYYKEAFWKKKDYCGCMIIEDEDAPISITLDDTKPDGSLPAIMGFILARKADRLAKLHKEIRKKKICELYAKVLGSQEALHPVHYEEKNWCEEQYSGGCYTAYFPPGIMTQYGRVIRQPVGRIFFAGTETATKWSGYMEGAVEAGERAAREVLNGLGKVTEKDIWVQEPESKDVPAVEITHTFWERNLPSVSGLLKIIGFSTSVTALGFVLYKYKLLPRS", "test": "In vitro safety: off-target receptor binding and enzyme assays, MAO A", "assay_type": "biochemical", "conditions": "in vitro safety panel", "method": "as §1"}, "CYP2D6 [4]": {"molecular_target": "T5, CYP2D6 (Homo sapiens, UniProt P10635)", "T5 sequence (P10635 whole entry)": "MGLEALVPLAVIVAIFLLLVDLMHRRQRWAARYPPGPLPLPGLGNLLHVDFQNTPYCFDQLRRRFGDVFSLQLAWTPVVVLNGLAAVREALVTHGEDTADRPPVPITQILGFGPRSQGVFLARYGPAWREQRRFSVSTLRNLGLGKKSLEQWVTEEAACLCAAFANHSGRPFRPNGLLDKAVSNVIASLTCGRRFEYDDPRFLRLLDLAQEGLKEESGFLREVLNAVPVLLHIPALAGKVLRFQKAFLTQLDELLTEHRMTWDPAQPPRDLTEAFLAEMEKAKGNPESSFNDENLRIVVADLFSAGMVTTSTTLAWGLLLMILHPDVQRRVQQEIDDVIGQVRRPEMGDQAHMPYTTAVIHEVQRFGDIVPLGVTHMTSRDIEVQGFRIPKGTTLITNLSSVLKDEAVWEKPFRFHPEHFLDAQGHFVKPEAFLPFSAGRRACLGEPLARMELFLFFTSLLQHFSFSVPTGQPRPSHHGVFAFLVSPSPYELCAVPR", "test": "biochemical"}, "CYP2D6 [5]": {"molecular_target": "T5, CYP2D6", "test": "Inhibition of CYP enzymes in human liver microsomes (HLM), CYP2D6", "conditions": "IC50 shift 0 vs 30 min preincubation (TDI ratio)"}, "CYP2C19 [6]": {"molecular_target": "T2, CYP2C19", "test": "Inhibition of CYP enzymes in human liver microsomes (HLM), CYP2C19"}, "CYP3A4": {"molecular_target": "CYP3A4 (Homo sapiens, UniProt P08684)", "sequence (P08684 whole entry)": "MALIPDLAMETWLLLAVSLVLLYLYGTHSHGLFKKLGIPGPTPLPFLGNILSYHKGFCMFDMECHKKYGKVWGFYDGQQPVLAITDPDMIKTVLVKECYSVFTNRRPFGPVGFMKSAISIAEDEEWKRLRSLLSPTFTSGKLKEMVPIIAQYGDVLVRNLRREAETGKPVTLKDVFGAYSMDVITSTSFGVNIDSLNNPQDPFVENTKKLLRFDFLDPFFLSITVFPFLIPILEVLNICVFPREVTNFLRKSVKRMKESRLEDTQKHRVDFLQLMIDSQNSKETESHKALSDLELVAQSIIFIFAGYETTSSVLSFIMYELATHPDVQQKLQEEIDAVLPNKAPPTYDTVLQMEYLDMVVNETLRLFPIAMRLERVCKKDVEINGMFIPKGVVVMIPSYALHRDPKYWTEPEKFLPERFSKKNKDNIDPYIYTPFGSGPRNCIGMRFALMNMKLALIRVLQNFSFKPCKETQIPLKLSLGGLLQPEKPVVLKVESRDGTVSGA", "test": "Inhibition of CYP enzymes in human liver microsomes (HLM), CYP3A4 (midazolam and testosterone)", "conditions": "IC50 shift 0 vs 30 min preincubation (TDI ratio)"}, "[7]": {"conditions": "HLM, IC50 shift 0 vs 30 min preincubation (TDI ratio)"}}, "note": "Where “and” joins values, the source holds several entries; their conditions need not be identical. Equal entries are not always repeated. Where two headings read alike, the source gives them in different places."}
{"smiles": "CNc1nc(Nc2ccc(-n3cnc(C)n3)c(OC(F)F)c2)nc2c1C(C)(C)CC2c1ccc(F)cc1", "note": "(single isomer, unassigned) [Enantiomer 1, N2-(3-(difluoromethoxy)-4-(3-methyl-1H-1,2,4-triazol-1-yl)phenyl)-7-(4-fluorophenyl)-N4,5,5-trimethyl-6,7-dihydro-5H-cyclopenta[d]pyrimidine-2,4-diamine]", "values": [{"measurement": "IC50", "setting": "Aβ42", "value": 0.0012, "unit": "µM"}, {"measurement": "IC50", "setting": "CYP2C8 [1]", "value": 0.96, "unit": "µM"}, {"measurement": "IC50", "setting": "CYP2C9", "value": 1.3, "unit": "µM"}, {"measurement": "IC50", "setting": "CYP2C19 [2]", "value": 0.96, "unit": "µM"}, {"measurement": "IC50", "setting": "CYP2B6; 0 min preincubation, read-out: IC50-0 min 2B6", "value": "> 40", "unit": "µM"}, {"measurement": "IC50 Ratio 2B6", "setting": "CYP2B6; IC50 shift 0 vs 30 min preincubation (TDI ratio)", "value": 1.0}, {"measurement": "IC50", "setting": "CYP2B6; read-out: IC50-30 min 2B6, 30 min preincubation with NADPH", "value": "> 40", "unit": "µM"}, {"measurement": "IC50", "setting": "CYP2C8 [3]; HLM, 0 min preincubation, read-out: IC50-0 min 2C8", "value": 4.2, "unit": "µM"}, {"measurement": "IC50 Ratio 2C8", "setting": "CYP2C8 [3]; [7]", "value": 1.9}, {"measurement": "IC50", "setting": "CYP2C8 [3]; IC50-30 min 2C8, HLM, 30 min preincubation with NADPH", "value": 2.2, "unit": "µM"}, {"measurement": "IC50", "setting": "dopamine receptor 1", "value": "8 to 10", "unit": "µM"}, {"measurement": "IC50", "setting": "monoamine oxidase A", "value": "8 to 10", "unit": "µM"}, {"measurement": "IC50", "setting": "CYP2D6 [4]", "value": "34.5 µM and 15.6 µM"}, {"measurement": "IC50 Ratio 2D6", "setting": "CYP2D6 [5]", "value": 2.2}, {"measurement": "IC50 Ratio 2C19", "setting": "CYP2C19 [6]; [7]", "value": 1.9}, {"measurement": "IC50", "setting": "CYP2C19 [6]; IC50-0 min 2C19, HLM, 0 min preincubation", "value": 22.6, "unit": "µM"}, {"measurement": "IC50", "setting": "CYP2C19 [6]; IC50-30 min 2C19, HLM, 30 min preincubation with NADPH", "value": 12.2, "unit": "µM"}, {"measurement": "IC50 Ratio 3A4-(MDZ)", "setting": "CYP3A4; midazolam probe", "value": 2.6}, {"measurement": "IC50 Ratio 3A4-(TST)", "setting": "CYP3A4; testosterone probe", "value": 2.7}]}
